Experimental data: ChEMBL document CHEMBL4330114 (Bioorg Med Chem, 2019)

test system: not listed separately; assay: Selectivity index, ratio of CC50 for mock-infected human MT4 cells to EC50 for HIV1 RES056 RES056 containing reverse transcriptase K103N + Y181C mutant infected in human MT4 cells; assay type: toxicity, cell-based; details: read-out: Selectivity Index

SMILES	selectivity ratio
N#Cc1cc(Cl)cc(Oc2c(C(F)(F)F)ccn(CC(=O)Nc3cn[nH]c3)c2=O)c1	134
N#Cc1cc(Cl)cc(Oc2c(C(F)(F)F)ccn(CC(=O)Nc3ccn[nH]3)c2=O)c1	1
N#Cc1cc(Cl)cc(Oc2c(C(F)(F)F)ccn(CC(=O)Nc3ccc(Br)cc3)c2=O)c1	< 1
N#Cc1cc(Cl)cc(Oc2c(C(F)(F)F)ccn(CC(=O)Nc3cnccn3)c2=O)c1	1
Nc1ccn([C@@H]2CS[C@H](CO)O2)c(=O)n1 [LAMIVUDINE]	> 11
N#Cc1cc(Cl)cc(Oc2c(C(F)(F)F)ccn(CC(=O)Nc3ncn[nH]3)c2=O)c1	> 1450

test system: Human immunodeficiency virus 2; assay: Antiviral activity against HIV2 ROD infected in human MT4 cells assessed as inhibition of virus-induced cytopathic effect after 5 days by MTT assay; details: Human immunodeficiency virus 2, ISOLATE ROD, MT4, 120 h

SMILES	EC50 [µM]
Cn1c(Cn2ccc(C(F)(F)F)c(Oc3cc(Cl)cc(C#N)c3)c2=O)n[nH]c1=O [DORAVIRINE]	142
N#Cc1cc(Cl)cc(Oc2c(C(F)(F)F)ccn(CC(=O)Nc3cn[nH]c3)c2=O)c1	≥ 33.4
N#Cc1cc(Cl)cc(Oc2c(C(F)(F)F)ccn(CC(=O)Nc3ccn[nH]3)c2=O)c1	134
N#Cc1cc(Cl)cc(Oc2c(C(F)(F)F)ccn(CC(=O)Nc3ccc(Br)cc3)c2=O)c1	> 87.9
N#Cc1cc(Cl)cc(Oc2c(C(F)(F)F)ccn(CC(=O)Nc3cnccn3)c2=O)c1	> 183
Nc1ccn([C@@H]2CS[C@H](CO)O2)c(=O)n1 [LAMIVUDINE]	≥ 17.1
N#Cc1cc(Cl)cc(Oc2c(C(F)(F)F)ccn(CC(=O)Nc3ncn[nH]3)c2=O)c1	182

test system: Human immunodeficiency virus 1; assay: Potency index, ratio of lamivudine EC50 to compound EC50 for antiviral activity against wild type HIV1 3B infected in human MT4 cells; assay type: functional; details: not given

SMILES	Ratio EC50
N#Cc1cc(Cl)cc(Oc2c(C(F)(F)F)ccn(CC(=O)Nc3ncn[nH]3)c2=O)c1	234

test system: not listed separately; assay: Selectivity index, ratio of CC50 for mock-infected human MT4 cells to EC50 for HIV2 ROD infected in human MT4 cells; assay type: toxicity, cell-based; details: read-out: Selectivity Index

SMILES	selectivity ratio
N#Cc1cc(Cl)cc(Oc2c(C(F)(F)F)ccn(CC(=O)Nc3cn[nH]c3)c2=O)c1	≤ 1
N#Cc1cc(Cl)cc(Oc2c(C(F)(F)F)ccn(CC(=O)Nc3ccn[nH]3)c2=O)c1	1
N#Cc1cc(Cl)cc(Oc2c(C(F)(F)F)ccn(CC(=O)Nc3ccc(Br)cc3)c2=O)c1	< 1
N#Cc1cc(Cl)cc(Oc2c(C(F)(F)F)ccn(CC(=O)Nc3cnccn3)c2=O)c1	1
N#Cc1cc(Cl)cc(Oc2c(C(F)(F)F)ccn(CC(=O)Nc3ncn[nH]3)c2=O)c1	> 2

test system: Human immunodeficiency virus 1; assay: Antiviral activity against wild type HIV1 3B infected in human MT4 cells assessed as inhibition of virus-induced cytopathic effect after 5 days by MTT assay; assay type: functional, organism-based; details: Human immunodeficiency virus 1, 3B, MT4, 120 h

SMILES	EC50 [µM]
Cn1c(Cn2ccc(C(F)(F)F)c(Oc3cc(Cl)cc(C#N)c3)c2=O)n[nH]c1=O [DORAVIRINE]	0.013
N#Cc1cc(Cl)cc(Oc2c(C(F)(F)F)ccn(CC(=O)Nc3cn[nH]c3)c2=O)c1	0.0595
O=C1Nc2ccc(Cl)cc2[C@@](C#CC2CC2)(C(F)(F)F)O1 [EFAVIRENZ]	0.007
N#Cc1cc(Cl)cc(Oc2c(C(F)(F)F)ccn(CC(=O)Nc3ccn[nH]3)c2=O)c1	6.34
N#Cc1cc(Cl)cc(Oc2c(C(F)(F)F)ccn(CC(=O)Nc3ccc(Br)cc3)c2=O)c1	> 87.9
N#Cc1cc(Cl)cc(Oc2c(C(F)(F)F)ccn(CC(=O)Nc3cnccn3)c2=O)c1	29.4
Nc1ccn([C@@H]2CS[C@H](CO)O2)c(=O)n1 [LAMIVUDINE]	12.8
N#Cc1cc(Cl)cc(Oc2c(C(F)(F)F)ccn(CC(=O)Nc3ncn[nH]3)c2=O)c1	0.0548

test system: not listed separately; assay: Solubility of the compound; assay type: physicochemical; details: not given

solubility [µg/mL]	SMILES
< 1	Cc1cc(C#N)cc(C)c1Oc1nc(Nc2ccc(C#N)cc2)nc(N)c1Br [ETRAVIRINE]

molecular target: Human immunodeficiency virus type 1 reverse transcriptase (Human immunodeficiency virus 1, UniProt Q72547); assay: Inhibition of recombinant wild type HIV1 reverse transcriptase assessed as reduction in biotin-dUTP incorporation using poly(A)/oligo(dT)15 as template/primer after 1 hr by ELISA; details: not given

SMILES	IC50 [µM]
Cn1c(Cn2ccc(C(F)(F)F)c(Oc3cc(Cl)cc(C#N)c3)c2=O)n[nH]c1=O [DORAVIRINE]	0.019
N#Cc1cc(Cl)cc(Oc2c(C(F)(F)F)ccn(CC(=O)Nc3cn[nH]c3)c2=O)c1	1.25
N#Cc1cc(Cl)cc(Oc2c(C(F)(F)F)ccn(CC(=O)Nc3ccn[nH]3)c2=O)c1	19.4
N#Cc1cc(Cl)cc(Oc2c(C(F)(F)F)ccn(CC(=O)Nc3ccc(Br)cc3)c2=O)c1	92.5
N#Cc1cc(Cl)cc(Oc2c(C(F)(F)F)ccn(CC(=O)Nc3cnccn3)c2=O)c1	63.4
N#Cc1cc(Cl)cc(Oc2c(C(F)(F)F)ccn(CC(=O)Nc3ncn[nH]3)c2=O)c1	0.522

test system: not listed separately; assay: Cytotoxicity against mock-infected human MT4 cells assessed as reduction in cell viability after 5 days by MTT assay; assay type: cell-based; details: not given

SMILES	CC50 at 120 h [µM]
Cn1c(Cn2ccc(C(F)(F)F)c(Oc3cc(Cl)cc(C#N)c3)c2=O)n[nH]c1=O [DORAVIRINE]	> 294
N#Cc1cc(Cl)cc(Oc2c(C(F)(F)F)ccn(CC(=O)Nc3cn[nH]c3)c2=O)c1	46.1
O=C1Nc2ccc(Cl)cc2[C@@](C#CC2CC2)(C(F)(F)F)O1 [EFAVIRENZ]	> 3.16
N#Cc1cc(Cl)cc(Oc2c(C(F)(F)F)ccn(CC(=O)Nc3ccn[nH]3)c2=O)c1	≥ 41.9
N#Cc1cc(Cl)cc(Oc2c(C(F)(F)F)ccn(CC(=O)Nc3ccc(Br)cc3)c2=O)c1	87.9
N#Cc1cc(Cl)cc(Oc2c(C(F)(F)F)ccn(CC(=O)Nc3cnccn3)c2=O)c1	≥ 183
Nc1ccn([C@@H]2CS[C@H](CO)O2)c(=O)n1 [LAMIVUDINE]	> 87.3
N#Cc1cc(Cl)cc(Oc2c(C(F)(F)F)ccn(CC(=O)Nc3ncn[nH]3)c2=O)c1	> 285

test system: Human immunodeficiency virus 1; assay: Antiviral activity against HIV1 RES056 containing reverse transcriptase K103N + Y181C mutant infected in human MT4 cells assessed as inhibition of virus-induced cytopathic effect after 5 days by MTT assay; assay type: functional, organism-based; details: Human immunodeficiency virus 1, RES056, MT4, 120 h

SMILES	EC50 [µM]
Cn1c(Cn2ccc(C(F)(F)F)c(Oc3cc(Cl)cc(C#N)c3)c2=O)n[nH]c1=O [DORAVIRINE]	0.015
N#Cc1cc(Cl)cc(Oc2c(C(F)(F)F)ccn(CC(=O)Nc3cn[nH]c3)c2=O)c1	0.343
O=C1Nc2ccc(Cl)cc2[C@@](C#CC2CC2)(C(F)(F)F)O1 [EFAVIRENZ]	0.244
N#Cc1cc(Cl)cc(Oc2c(C(F)(F)F)ccn(CC(=O)Nc3ccn[nH]3)c2=O)c1	> 41.9
N#Cc1cc(Cl)cc(Oc2c(C(F)(F)F)ccn(CC(=O)Nc3ccc(Br)cc3)c2=O)c1	> 87.9
N#Cc1cc(Cl)cc(Oc2c(C(F)(F)F)ccn(CC(=O)Nc3cnccn3)c2=O)c1	> 183
Nc1ccn([C@@H]2CS[C@H](CO)O2)c(=O)n1 [LAMIVUDINE]	7.77
N#Cc1cc(Cl)cc(Oc2c(C(F)(F)F)ccn(CC(=O)Nc3ncn[nH]3)c2=O)c1	0.196

test system: not listed separately; assay: Selectivity index, ratio of CC50 for mock-infected human MT4 cells to EC50 for wild type HIV1 3B infected in human MT4 cells; assay type: toxicity, cell-based; details: read-out: Selectivity Index

SMILES	selectivity ratio
N#Cc1cc(Cl)cc(Oc2c(C(F)(F)F)ccn(CC(=O)Nc3cn[nH]c3)c2=O)c1	775
N#Cc1cc(Cl)cc(Oc2c(C(F)(F)F)ccn(CC(=O)Nc3ccn[nH]3)c2=O)c1	≥ 7
N#Cc1cc(Cl)cc(Oc2c(C(F)(F)F)ccn(CC(=O)Nc3ccc(Br)cc3)c2=O)c1	< 1
N#Cc1cc(Cl)cc(Oc2c(C(F)(F)F)ccn(CC(=O)Nc3cnccn3)c2=O)c1	≥ 6
Nc1ccn([C@@H]2CS[C@H](CO)O2)c(=O)n1 [LAMIVUDINE]	> 7
N#Cc1cc(Cl)cc(Oc2c(C(F)(F)F)ccn(CC(=O)Nc3ncn[nH]3)c2=O)c1	> 5200
